Common to all, as to assay type: binding
The target of experiment [1] is T1, HeLa cell extract proteins (Homo sapiens, UniProt P11142).
T1 construct: endogenous in cells; host or cells: HeLa cell extract

Experiment [2] deals with T2, HeLa cell extract proteins (Homo sapiens, UniProt P51149).
T2 construct: endogenous in cells; host or cells: HeLa cell extract

The target of experiment [3] is T3, HeLa cell extract proteins (Homo sapiens, UniProt P06744).
T3 construct: endogenous in cells; host or cells: HeLa cell extract

Experiment [4] deals with T4, HeLa cell extract proteins (Homo sapiens, UniProt O75340).
T4 construct: endogenous in cells; host or cells: HeLa cell extract

Experiment [5] has as its target T5, HeLa cell extract proteins (Homo sapiens, UniProt O75521).
T5 construct: endogenous in cells; host or cells: HeLa cell extract
T5 sequence (O75521 39-394): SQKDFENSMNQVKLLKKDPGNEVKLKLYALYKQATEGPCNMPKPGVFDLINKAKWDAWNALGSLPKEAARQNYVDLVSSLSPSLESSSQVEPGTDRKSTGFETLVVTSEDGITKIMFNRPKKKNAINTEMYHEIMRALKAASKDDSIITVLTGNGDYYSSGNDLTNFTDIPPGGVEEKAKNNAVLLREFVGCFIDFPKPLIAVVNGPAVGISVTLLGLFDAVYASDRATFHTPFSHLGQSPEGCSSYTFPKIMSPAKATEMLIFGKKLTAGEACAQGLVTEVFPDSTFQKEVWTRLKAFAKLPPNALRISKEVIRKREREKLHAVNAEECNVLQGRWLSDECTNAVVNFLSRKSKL

The target in experiment [6] is T6, HeLa cell extract proteins (Homo sapiens, UniProt P22234).
T6 construct: endogenous in cells; host or cells: HeLa cell extract
T6 sequence (P22234 1-425): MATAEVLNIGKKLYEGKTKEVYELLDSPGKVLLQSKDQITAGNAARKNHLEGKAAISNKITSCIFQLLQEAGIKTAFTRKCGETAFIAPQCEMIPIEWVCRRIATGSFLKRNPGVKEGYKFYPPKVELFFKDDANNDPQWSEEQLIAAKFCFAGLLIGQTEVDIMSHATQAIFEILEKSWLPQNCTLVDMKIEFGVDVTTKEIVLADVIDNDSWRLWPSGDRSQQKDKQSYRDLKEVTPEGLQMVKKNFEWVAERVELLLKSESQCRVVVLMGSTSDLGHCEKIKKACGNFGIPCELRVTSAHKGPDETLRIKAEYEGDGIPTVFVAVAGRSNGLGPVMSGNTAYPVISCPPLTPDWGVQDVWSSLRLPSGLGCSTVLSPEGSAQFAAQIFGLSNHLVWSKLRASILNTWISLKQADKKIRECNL

The target of experiment [7] is T7, HeLa cell extract proteins (Homo sapiens, UniProt O75152).
T7 construct: endogenous in cells; host or cells: HeLa cell extract

Experiment [8] addresses T8, HeLa cell extract proteins (Homo sapiens, UniProt Q13162).
T8 construct: endogenous in cells; host or cells: HeLa cell extract
T8 sequence (Q13162 38-271): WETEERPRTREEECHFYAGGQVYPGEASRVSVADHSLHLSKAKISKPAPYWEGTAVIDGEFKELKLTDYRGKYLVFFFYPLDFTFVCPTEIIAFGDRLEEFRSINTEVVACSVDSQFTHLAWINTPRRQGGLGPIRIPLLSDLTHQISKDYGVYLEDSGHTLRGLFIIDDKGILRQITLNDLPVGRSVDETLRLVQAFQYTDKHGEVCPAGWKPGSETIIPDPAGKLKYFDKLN

For experiment [9], the target named is T9, HeLa cell extract proteins (Homo sapiens, UniProt O95831).
T9 construct: endogenous in cells; host or cells: HeLa cell extract

Experiment [10] concerns the target T10, HeLa cell extract proteins (Homo sapiens, UniProt O15260).
T10 construct: endogenous in cells; host or cells: HeLa cell extract

The target in experiment [11] is T11, HeLa cell extract proteins (Homo sapiens, UniProt Q9H583).
T11 construct: endogenous in cells; host or cells: HeLa cell extract

In experiment [12] the target is T12, HeLa cell extract proteins (Homo sapiens, UniProt P61160).
T12 construct: endogenous in cells; host or cells: HeLa cell extract

Experiment [13] concerns the target T13, HeLa cell extract proteins (Homo sapiens, UniProt P0DMV8).
T13 construct: endogenous in cells; host or cells: HeLa cell extract

The target in experiment [14] is T14, HeLa cell extract proteins (Homo sapiens, UniProt O15427).
T14 construct: endogenous in cells; host or cells: HeLa cell extract
T14 sequence (O15427 1-465): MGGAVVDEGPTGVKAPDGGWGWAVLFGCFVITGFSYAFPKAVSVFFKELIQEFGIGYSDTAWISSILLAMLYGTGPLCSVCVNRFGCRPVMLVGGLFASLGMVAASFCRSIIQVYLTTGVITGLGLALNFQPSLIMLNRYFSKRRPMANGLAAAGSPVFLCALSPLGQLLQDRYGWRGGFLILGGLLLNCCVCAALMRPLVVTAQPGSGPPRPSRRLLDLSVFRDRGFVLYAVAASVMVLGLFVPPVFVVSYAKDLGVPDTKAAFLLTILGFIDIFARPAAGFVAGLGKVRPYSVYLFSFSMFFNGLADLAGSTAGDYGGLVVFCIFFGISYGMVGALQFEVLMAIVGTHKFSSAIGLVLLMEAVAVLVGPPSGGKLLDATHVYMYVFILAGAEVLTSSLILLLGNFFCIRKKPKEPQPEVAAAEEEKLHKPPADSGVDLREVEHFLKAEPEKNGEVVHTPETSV

Setting [15] is: HeLa, protein PDCD6 (PROGRAMMED CELL DEATH PROTEIN 6).
Setting [16] is: HeLa, protein ZC3H11A (ZINC FINGER CCCH DOMAIN-CONTAINING PROTEIN 11A).
[17] abbreviates: HeLa, protein PRDX4 (PEROXIREDOXIN-4).
[18] abbreviates: HeLa, protein GPI (CDNA FLJ56429, HIGHLY SIMILAR TO GLUCOSE-6-PHOSPHATE ISOMERASE.).

The structures appear in SMILES notation. Read-outs that look alike come from different tables or passages of the source.

T1 sequence (P11142 whole entry): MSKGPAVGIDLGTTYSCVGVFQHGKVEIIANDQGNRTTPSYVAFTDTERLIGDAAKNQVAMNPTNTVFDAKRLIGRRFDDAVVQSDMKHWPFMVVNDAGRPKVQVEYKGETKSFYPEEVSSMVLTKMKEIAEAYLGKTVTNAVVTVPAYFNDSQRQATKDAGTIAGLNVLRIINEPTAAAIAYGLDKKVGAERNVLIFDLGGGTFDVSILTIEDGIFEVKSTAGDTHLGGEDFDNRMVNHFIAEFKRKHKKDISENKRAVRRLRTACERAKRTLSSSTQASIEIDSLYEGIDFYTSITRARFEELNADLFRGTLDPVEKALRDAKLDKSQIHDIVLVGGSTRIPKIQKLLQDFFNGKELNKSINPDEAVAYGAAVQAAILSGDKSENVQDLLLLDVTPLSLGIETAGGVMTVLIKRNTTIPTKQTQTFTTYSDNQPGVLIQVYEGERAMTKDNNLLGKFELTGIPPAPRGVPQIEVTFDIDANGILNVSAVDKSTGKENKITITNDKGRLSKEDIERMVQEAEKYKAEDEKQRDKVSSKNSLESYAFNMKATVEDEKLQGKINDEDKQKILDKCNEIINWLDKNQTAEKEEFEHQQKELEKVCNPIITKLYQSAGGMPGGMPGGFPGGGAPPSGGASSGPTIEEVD
T10 sequence (O15260 whole entry): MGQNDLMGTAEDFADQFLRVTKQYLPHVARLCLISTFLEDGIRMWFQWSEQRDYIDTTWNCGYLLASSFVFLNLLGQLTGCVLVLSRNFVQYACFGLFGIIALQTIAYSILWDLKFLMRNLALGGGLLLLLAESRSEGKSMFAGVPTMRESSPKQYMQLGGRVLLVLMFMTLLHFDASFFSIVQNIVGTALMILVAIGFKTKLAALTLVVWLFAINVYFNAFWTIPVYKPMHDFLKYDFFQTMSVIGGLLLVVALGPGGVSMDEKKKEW
T9 sequence (O95831 102-613): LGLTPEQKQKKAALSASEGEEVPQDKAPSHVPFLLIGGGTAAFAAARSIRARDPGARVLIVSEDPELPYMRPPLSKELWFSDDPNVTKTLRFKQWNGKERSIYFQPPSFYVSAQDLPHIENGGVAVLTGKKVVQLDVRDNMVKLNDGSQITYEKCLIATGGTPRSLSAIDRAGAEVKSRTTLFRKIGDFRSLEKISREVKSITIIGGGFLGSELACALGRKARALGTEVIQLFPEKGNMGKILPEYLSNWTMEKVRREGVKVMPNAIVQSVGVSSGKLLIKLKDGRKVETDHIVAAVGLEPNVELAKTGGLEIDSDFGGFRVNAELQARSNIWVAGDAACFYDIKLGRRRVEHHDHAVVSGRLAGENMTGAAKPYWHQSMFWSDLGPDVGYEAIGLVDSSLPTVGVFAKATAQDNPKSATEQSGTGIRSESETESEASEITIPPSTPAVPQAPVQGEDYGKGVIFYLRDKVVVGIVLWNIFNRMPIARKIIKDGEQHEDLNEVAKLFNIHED
T2 sequence (P51149 whole entry): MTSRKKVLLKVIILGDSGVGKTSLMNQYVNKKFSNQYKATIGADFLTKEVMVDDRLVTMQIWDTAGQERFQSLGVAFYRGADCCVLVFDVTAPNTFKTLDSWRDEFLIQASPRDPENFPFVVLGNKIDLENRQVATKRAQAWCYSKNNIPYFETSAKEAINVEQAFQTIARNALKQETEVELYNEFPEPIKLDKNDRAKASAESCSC
T7 sequence (O75152 whole entry): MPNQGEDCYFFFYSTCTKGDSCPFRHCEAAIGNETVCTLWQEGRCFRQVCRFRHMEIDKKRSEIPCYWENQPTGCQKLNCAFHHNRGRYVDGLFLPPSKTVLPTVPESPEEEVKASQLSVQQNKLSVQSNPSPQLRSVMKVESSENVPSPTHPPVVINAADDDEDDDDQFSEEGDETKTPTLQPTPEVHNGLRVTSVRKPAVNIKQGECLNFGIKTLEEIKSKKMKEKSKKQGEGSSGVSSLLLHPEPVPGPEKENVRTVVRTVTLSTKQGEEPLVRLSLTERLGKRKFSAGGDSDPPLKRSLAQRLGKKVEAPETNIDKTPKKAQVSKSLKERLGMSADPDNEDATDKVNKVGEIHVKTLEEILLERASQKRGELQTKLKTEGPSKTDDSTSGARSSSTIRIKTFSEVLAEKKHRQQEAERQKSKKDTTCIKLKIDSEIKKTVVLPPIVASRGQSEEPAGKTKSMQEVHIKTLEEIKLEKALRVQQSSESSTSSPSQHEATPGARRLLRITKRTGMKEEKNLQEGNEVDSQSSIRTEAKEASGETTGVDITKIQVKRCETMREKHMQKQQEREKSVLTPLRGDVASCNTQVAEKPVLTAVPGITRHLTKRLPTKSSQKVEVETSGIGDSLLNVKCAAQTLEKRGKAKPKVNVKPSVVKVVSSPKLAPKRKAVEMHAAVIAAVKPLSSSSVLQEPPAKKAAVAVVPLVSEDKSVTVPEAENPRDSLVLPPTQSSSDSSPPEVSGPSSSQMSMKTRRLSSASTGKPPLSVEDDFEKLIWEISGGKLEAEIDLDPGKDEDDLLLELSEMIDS
T11 sequence (Q9H583 whole entry): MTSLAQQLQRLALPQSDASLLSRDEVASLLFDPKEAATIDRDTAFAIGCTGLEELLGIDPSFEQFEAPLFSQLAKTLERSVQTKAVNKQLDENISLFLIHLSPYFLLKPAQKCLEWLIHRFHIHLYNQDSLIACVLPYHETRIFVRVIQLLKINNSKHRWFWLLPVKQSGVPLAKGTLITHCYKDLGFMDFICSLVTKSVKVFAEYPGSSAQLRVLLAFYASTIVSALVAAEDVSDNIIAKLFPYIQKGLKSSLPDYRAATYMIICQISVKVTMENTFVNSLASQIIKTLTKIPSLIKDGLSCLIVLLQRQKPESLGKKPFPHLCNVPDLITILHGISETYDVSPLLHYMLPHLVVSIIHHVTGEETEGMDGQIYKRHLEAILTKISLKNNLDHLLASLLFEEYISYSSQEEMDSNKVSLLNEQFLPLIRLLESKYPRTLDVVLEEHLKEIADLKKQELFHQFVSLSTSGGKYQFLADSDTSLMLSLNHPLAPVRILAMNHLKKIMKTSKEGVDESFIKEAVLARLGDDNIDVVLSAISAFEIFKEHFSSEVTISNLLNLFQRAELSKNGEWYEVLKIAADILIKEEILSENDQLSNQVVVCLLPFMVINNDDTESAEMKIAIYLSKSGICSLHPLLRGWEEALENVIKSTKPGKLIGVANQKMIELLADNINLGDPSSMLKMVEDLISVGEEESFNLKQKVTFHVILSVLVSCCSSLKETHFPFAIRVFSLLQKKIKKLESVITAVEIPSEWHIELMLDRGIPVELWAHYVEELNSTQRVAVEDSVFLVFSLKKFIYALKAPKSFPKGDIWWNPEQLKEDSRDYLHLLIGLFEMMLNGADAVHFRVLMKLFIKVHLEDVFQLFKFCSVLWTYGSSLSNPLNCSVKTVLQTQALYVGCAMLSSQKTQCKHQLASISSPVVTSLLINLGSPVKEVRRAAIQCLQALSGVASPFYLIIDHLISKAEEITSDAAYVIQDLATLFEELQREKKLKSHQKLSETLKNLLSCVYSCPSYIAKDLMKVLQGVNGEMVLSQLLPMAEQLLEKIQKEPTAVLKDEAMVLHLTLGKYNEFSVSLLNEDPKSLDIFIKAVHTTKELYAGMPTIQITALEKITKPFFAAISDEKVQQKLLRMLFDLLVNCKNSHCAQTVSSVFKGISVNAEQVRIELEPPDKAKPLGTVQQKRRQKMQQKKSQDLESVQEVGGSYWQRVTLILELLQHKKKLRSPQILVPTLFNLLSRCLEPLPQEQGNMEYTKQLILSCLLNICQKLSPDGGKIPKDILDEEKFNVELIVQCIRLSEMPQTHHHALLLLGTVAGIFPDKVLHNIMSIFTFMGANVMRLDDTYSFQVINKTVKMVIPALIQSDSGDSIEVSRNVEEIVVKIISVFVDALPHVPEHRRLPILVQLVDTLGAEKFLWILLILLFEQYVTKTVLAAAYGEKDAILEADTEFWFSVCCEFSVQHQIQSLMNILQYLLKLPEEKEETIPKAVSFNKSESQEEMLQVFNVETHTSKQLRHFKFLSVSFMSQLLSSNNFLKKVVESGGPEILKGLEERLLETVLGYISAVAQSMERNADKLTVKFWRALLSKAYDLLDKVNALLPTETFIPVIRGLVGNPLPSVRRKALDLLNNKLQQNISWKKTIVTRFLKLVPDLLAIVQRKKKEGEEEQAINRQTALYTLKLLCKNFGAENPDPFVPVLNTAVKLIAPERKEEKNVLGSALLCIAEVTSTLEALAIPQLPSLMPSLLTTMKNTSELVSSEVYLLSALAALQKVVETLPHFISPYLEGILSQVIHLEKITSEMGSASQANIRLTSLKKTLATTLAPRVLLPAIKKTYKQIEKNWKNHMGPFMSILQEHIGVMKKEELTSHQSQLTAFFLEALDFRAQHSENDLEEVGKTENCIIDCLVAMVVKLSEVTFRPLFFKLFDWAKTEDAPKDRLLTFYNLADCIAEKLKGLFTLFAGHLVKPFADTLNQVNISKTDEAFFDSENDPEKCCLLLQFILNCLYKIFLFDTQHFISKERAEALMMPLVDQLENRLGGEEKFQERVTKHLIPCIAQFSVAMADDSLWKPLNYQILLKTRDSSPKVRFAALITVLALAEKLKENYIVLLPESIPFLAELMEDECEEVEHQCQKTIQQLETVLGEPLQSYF
T4 sequence (O75340 whole entry): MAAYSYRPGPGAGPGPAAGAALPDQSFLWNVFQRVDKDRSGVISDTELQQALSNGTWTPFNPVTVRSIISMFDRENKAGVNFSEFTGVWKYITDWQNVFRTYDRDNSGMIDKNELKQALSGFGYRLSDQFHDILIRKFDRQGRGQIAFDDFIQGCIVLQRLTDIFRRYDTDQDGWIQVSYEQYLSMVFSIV

`Nc1nc2c(c(=O)[nH]1)N(C=O)C(CNc1ccc(C(=O)N[C@@H](CCC(=O)O)C(=O)O)cc1)CN2` (stereo partly drawn) [LEU, leucovorin]: the “fold changes relative to vehicle control” value stood at 1.07 in experiment [1] (HeLa, captured protein HSPA8); 0.99 in experiment [2] (protein RAB7A, HeLa); 0.98 in experiment [3] (HeLa, protein GPI); 1.14 in experiment [4] (setting [15]); 1.06 in [5] (HeLa, captured protein PECI); 0.97 in [6] (HeLa, protein PAICS). The “fold changes relative to vehicle control” value is given as 1.06 in experiment [7] (setting [16]); 1.09 in [8] (setting [17]); 1.01 in experiment [9] (protein AIFM1, HeLa); 0.86 in [10] (HeLa, captured protein SURF4); 0.94 in [11] (HeLa, protein HEATR1); 0.99 in experiment [12] (HeLa, protein ACTR2). Also, the “fold changes relative to vehicle control” value in experiment [13] (HeLa, captured protein HSPA1A) worked out at 1.02; in experiment [14] (HeLa, protein SLC16A3), 0.96.

In the case of `Nc1nc2[nH]cc(CCc3ccc(C(=O)N[C@@H](CCC(=O)O)C(=O)O)cc3)c2c(=O)[nH]1` [PTX, pemetrexed], the “fold changes relative to vehicle control” value is reported as 0.99 in experiment [1]; 1.12 in experiment [2]; 1.08 in experiment [3]; 1.06 in experiment [4]; 1.01 in experiment [5]; 0.86 in [6]. Further, the “fold changes relative to vehicle control” value in [7] worked out at 0.96; in experiment [8], 0.96; in experiment [9], 1.01; in experiment [10] it was 0.9; in experiment [11], 0.98; in experiment [12] it was 1.08. Further, the “fold changes relative to vehicle control” value in experiment [13] is reported as 0.98; in experiment [14], 0.85.

With `CCCCCCOc1ccc(Cc2cnc(N)nc2N)cc1` [compound 1], the “fold changes relative to vehicle control” value worked out at 0.99 in experiment [1] (protein HSPA8, HeLa); 1.21 in experiment [2] (protein RAB7A, HeLa); 1.37 fold in experiment [3] (setting [18]); 1.03 in [4] (HeLa, protein PDCD6); 0.99 in experiment [5] (protein PECI, HeLa); 1.07 in experiment [6] (protein PAICS, HeLa). Further, the “fold changes relative to vehicle control” value in [7] (captured protein ZC3H11A, HeLa) was 0.95; in [8] (HeLa, protein PRDX4) it was 1.08; in experiment [9] (captured protein AIFM1, HeLa), 0.97; in experiment [10] (captured protein SURF4, HeLa), 0.9; in experiment [11] (HeLa, protein HEATR1), 1.14; in experiment [12] (protein ACTR2, HeLa) it was 1.06. The “fold changes relative to vehicle control” value in experiment [13] (protein HSPA1A, HeLa) is 0.97; in experiment [14] (HeLa, protein SLC16A3), 0.83.

On to `CCCCCCOc1cccc(Cc2cnc(N)nc2N)c1` [compound 2], for which the “fold changes relative to vehicle control” value came to 1.11 in [1] (protein HSPA8, HeLa); 1.58 in [2] (protein RAB7A, HeLa); 2.26 fold in experiment [3] (setting [18]); 0.92 in experiment [4] (HeLa, protein PDCD6); 0.82 in experiment [5] (protein PECI, HeLa); 1.68 in experiment [6] (protein PAICS, HeLa). Moreover, the “fold changes relative to vehicle control” value in experiment [7] (captured protein ZC3H11A, HeLa) turned out to be 1.01; in experiment [8] (HeLa, protein PRDX4), 0.93; in experiment [9] (captured protein AIFM1, HeLa), 1; in experiment [10] (captured protein SURF4, HeLa) it was 1; in [11] (HeLa, protein HEATR1), 1.2; in experiment [12] (protein ACTR2, HeLa), 1.44. Besides, the “fold changes relative to vehicle control” value is given as 1.09 in [13] (protein HSPA1A, HeLa) and 0.94 in experiment [14] (HeLa, protein SLC16A3).

For `Nc1nc2cccc(-c3ccccc3)c2n1Cc1ccc(Cl)c(Cl)c1` [compound 3], the “fold changes relative to vehicle control” value is recorded as 1 in experiment [1] (protein HSPA8, HeLa); 1.12 in experiment [2] (protein RAB7A, HeLa); 0.93 fold in experiment [3] (setting [18]); 1.07 in experiment [4] (HeLa, protein PDCD6); 1.05 in experiment [5] (protein PECI, HeLa); 0.94 in experiment [6] (protein PAICS, HeLa). For the same compound, the “fold changes relative to vehicle control” value in experiment [7] (captured protein ZC3H11A, HeLa) is 0.94; in experiment [8] (HeLa, protein PRDX4) it was 0.99; in experiment [9] (captured protein AIFM1, HeLa), 0.92; in [10] (captured protein SURF4, HeLa), 1.03; in [11] (HeLa, protein HEATR1) it was 1.12; in experiment [12] (protein ACTR2, HeLa), 1.13. The “fold changes relative to vehicle control” value in experiment [13] (protein HSPA1A, HeLa) is 1; in [14] (HeLa, protein SLC16A3) it was 0.94.

Take `NCCOCCOCC(=O)Nc1nc2ncc(CNc3ccc(C(=O)NC(CCC(=O)O)C(=O)O)cc3)nc2c(=O)[nH]1` (stereo not drawn) [compound 6]: the “fold changes relative to vehicle control” value in experiment [1] (HeLa, captured protein HSPA8) came to 0.98; in experiment [2] (protein RAB7A, HeLa), 1.31; in experiment [3] (HeLa, protein GPI) it was 1.23; in experiment [4] (setting [15]), 0.98; in experiment [5] (HeLa, captured protein PECI), 0.96; in [6] (HeLa, protein PAICS) it was 1.22. Besides, the “fold changes relative to vehicle control” value in [7] (setting [16]) was determined as 0.92; in experiment [8] (setting [17]), 0.92; in [9] (protein AIFM1, HeLa) it was 0.99; in experiment [10] (HeLa, captured protein SURF4), 0.95; in [11] (HeLa, protein HEATR1) it was 1.09; in [12] (HeLa, protein ACTR2), 1.18. The “fold changes relative to vehicle control” value was found to be 1 in experiment [13] (HeLa, captured protein HSPA1A) and 0.85 in [14] (HeLa, protein SLC16A3).

Source of the values: paper PMC6199744, “Development of Chemical Proteomics for the Folateome and Analysis of the Kinetoplastid Folateome” (ACS Infectious Diseases, 2018).
